Read-outs that look alike come from different tables or passages of the source.
Legend:
[1] = target: T1, BRD4 (BDI_K57-E168) (Homo sapiens, UniProt O60885); experiment: TR-FRET bromodomain binding assay, first bromodomain of BRD4; details: 100 nM probe
T1 construct: BD1: amino acids K57-E168; made in house
In short: (§1)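 TR-FRET displacement of an Alexa647-labelled BET-inhibitor probe from His-tagged BRD4 BD1 or BD2 (8 nM), read via 1 nM Eu-anti-His antibody after 1 h at room temperature. Buffer was 20 mM sodium phosphate pH 6.0 with 2% DMSO. Probe was 100 nM for BDI and 30 nM for BDII. IC50 came from 4-parameter fits, and Ki from IC50, probe Kd and probe concentration.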

[2] = target: T2, BRD4 (BDII_E352-M457) (Homo sapiens, UniProt O60885); experiment: TR-FRET bromodomain binding assay, second bromodomain of BRD4; details: 30 nM probe
T2 construct: protocol; made in house
In short: as §1

[3] = test system: IL-6 (Interleukin-6) production; experiment: LPS (lipopolysaccharide) induced IL-6 production mouse assay; type: in vivo, mice; details: oral administration 1 h before LPS 2.5 mg/kg ip, serum 2 h after LPS, p < 0.05 vs vehicle
Procedure: LPS (Lipopolysaccharide) Induced IL-6 Production Mouse Assay
Compounds of the Examples listed in Table 2 were assayed for their ability to inhibit LPS (lipopolysaccharide) induced IL-6 (Interleukin-6) production in mice. Fox Chase SCID® female mice (Charles Rivers Labs, 5 per group) or CD1 female mice (5 per group) received an intraperitoneal challenge of lipopolysaccharide (2.5 mg/kg, L2630 E. coli 0111:B4) one hour after oral administration of compounds. Mice were euthanized 2 hours after lipopolysaccharide injection, blood was removed by cardiac puncture, and then the serum harvested from the blood samples was frozen at −80° C. On the day of the assay the serum samples were brought to room temperature and then diluted 1:20 in phosphate-buffered saline containing 2% bovine serum albumin. Interleukin-6 measurements were performed using a cytokine assay from Meso Scale Discovery (Gaithersburg, Md.) for mouse serum analysis according to the manufacturer's protocol and read on a SECTOR Imager 6000 (Meso Scale Discovery, Gaithersburg, Md.) instrument. Statistical analysis was performed using Prism software (version 5.0) incorporating Dunnett's one way ANOVA. The IL-6 mean and standard deviation of the group of vehicle treated animals were compared with the IL-6 mean and standard deviation of the group treated with drug. A p value <0.05 means that there is less than a 5% probability that the mean values in the two groups are equal.

[4] = test system: breast cancer cell line MX-1; experiment: MX-1 cell line proliferation assay; type: cell-based; details: MX-1 cells, 3-day proliferation assay, Cell Titer Glo, read-out: Cellular proliferation: EC50
In short: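 MX-1 cells at 5000/well, in RPMI 1640 with 10% FBS, were exposed to compounds for 3 days. Final concentrations ranged 3 μM–0.1 nM or 1 μM–0.03 nM, in 3-fold steps. Cell Titer Glo luminescence was normalized to DMSO and fitted sigmoidally for EC50; overall MSR 2.1.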

[5] = TR-FRET assay protocol G (compound 0.92 μM-15 pM)
[6] = TR-FRET assay protocol E (compound 9.19 μM-150 pM)

Compound	Ki [1, 5] [nM]	Ki [2, 5] [nM]	% inhibition of LPS induced IL-6 production ([3]; mouse strain SCID) [%]	EC50 ([4]; Homo sapiens, MX1, 72 h) [nM]	Ki [1, 6] [nM]	Ki [2, 6] [nM]	EC50 [4] [nM]	% inhibition of LPS induced IL-6 production ([3]; mouse strain CD1) [%]
[2H]C1([2H])c2c[nH]c3c(=O)n(C)cc(c23)-c2cc(CS(C)(=O)=O)ccc2N1c1ccc(F)cc1 [Example 31, 4-(4-fluorophenyl)-(3,3-^2H2)-10-methyl-7-((methylsulfonyl)methyl)-3,4-dihydro-1H-1,4,10-triazadibenzo[cd,f]azulen-11(10H)-one]	1.67	1.18	83	0.752				
Cn1cc2c3c(c[nH]c3c1=O)CN(C1CCC(F)(F)CC1)c1ccc(CS(C)(=O)=O)cc1-2 [Example 30, 4-(4,4-difluorocyclohexyl)-10-methyl-7-((methylsulfonyl)methyl)-3,4-dihydro-1H-1,4,10-triazadibenzo[cd,f]azulen-11(10H)-one]			81		4.98	1.36	1.39	
Cn1cc2c3c(c[nH]c3c1=O)CN(c1ccc(F)cc1F)c1c-2cc(CS(C)(=O)=O)cc1C1CC1 [Example 195, 5-cyclopropyl-4-(2,4-difluorophenyl)-10-methyl-7-((methylsulfonyl)methyl)-3,4-dihydro-1H-1,4,10-triazadibenzo[cd,f]azulen-11(10H)-one]	2.66	0.62					3.77	85
CCCCN1Cc2c[nH]c3c(=O)n(C)cc(c23)-c2cc(CS(C)(=O)=O)ccc21 [Example 24, 4-butyl-10-methyl-7-((methylsulfonyl)methyl)-3,4-dihydro-1H-1,4,10-triazadibenzo[cd,f]azulen-11(10H)-one]			78		0.963	0.801	1.07	
Cn1cc2c3c(c[nH]c3c1=O)CN(CCC1CCOCC1)c1ccc(CS(C)(=O)=O)cc1-2 [Example 191, 10-methyl-7-((methylsulfonyl)methyl)-4-(2-(tetrahydro-2H-pyran-4-yl)ethyl)-3,4-dihydro-1H-1,4,10-triazadibenzo[cd,f]azulen-11(10H)-one]	1	3.38					10.7	60
Cn1cc2c3c(c[nH]c3c1=O)CN(C1CCCOC1)c1ccc(CS(C)(=O)=O)cc1-2 (racemic) [Example 182, 10-methyl-7-((methylsulfonyl)methyl)-4-(tetrahydro-2H-pyran-3-yl)-3,4-dihydro-1H-1,4,10-triazadibenzo[cd,f]azulen-11(10H)-one]	1.31	2					1.08	77
CCNC(=O)c1[nH]c2c(=O)n(C)cc3c2c1CN(c1ccc(Cl)cc1)c1ccc(CS(C)(=O)=O)cc1-3 [Example 59, 4-(4-chlorophenyl)-N-ethyl-10-methyl-7-((methylsulfonyl)methyl)-11-oxo-3,4,10,11-tetrahydro-1H-1,4,10-triazadibenzo[cd,f]azulene-2-carboxamide]	3.1	0.972					3.8	68
Cn1cc2c3c(c[nH]c3c1=O)CN(CC1CCOC1)c1ccc(CS(C)(=O)=O)cc1-2 (stereo not drawn) [Example 26]	0.701	0.719	88				1.03	
4-(2,4-difluorophenyl)-10-methyl-7-((methylsulfonyl)methyl)-11-oxo-3,4,10,11-tetrahydro-1H-1,4,10-triazadibenzo[cd,f]azulene-5-carbonitrile [Example 206]	0.96	0.51					1.41	76
Cn1cc2c3c(c[nH]c3c1=O)CN(c1ccc(Cl)cc1)c1ccc(CS(C)(=O)=O)cc1-2 [Example 198, 4-(4-chlorophenyl)-10-methyl-7-((methylsulfonyl)methyl)-3,4-dihydro-1H-1,4,10-triazadibenzo[cd,f]azulen-11(10H)-one]	1.59	0.63					0.69	86
4-((4,4-difluorocyclohexyl)methyl)-10-methyl-7-((methylsulfonyl)methyl)-3,4-dihydro-1H-1,4,10-triazadibenzo[cd,f]azulen-11(10H)-one [Example 27]			79		1.19	1.01	1.27	
COCCC1c2c[nH]c3c(=O)n(C)cc(c23)-c2cc(CS(C)(=O)=O)ccc2N1CC1CC1 (racemic) [Example 15, 4-(cyclopropylmethyl)-3-(2-methoxyethyl)-10-methyl-7-((methylsulfonyl)methyl)-3,4-dihydro-1H-1,4,10-triazadibenzo[cd,f]azulen-11(10H)-one]			68		5.22	0.631	8.75	
CCS(=O)(=O)Nc1cnc2c(c1)-c1cn(C)c(=O)c3[nH]cc(c13)CN2c1ccc(F)cc1F [Example 23, N-(4-(2,4-difluorophenyl)-10-methyl-11-oxo-3,4,10,11-tetrahydro-1H-1,4,5,10-tetraazadibenzo[cd,f]azulen-7-yl)ethanesulfonamide]			54		1.7	0.783	7	
5,7-difluoro-10-methyl-4-((tetrahydrofuran-3-yl)methyl)-3,4-dihydro-1H-1,4,10-triazadibenzo[cd,f]azulen-11(10H)-one [Example 42]	1.56	2.03					5.44	86
Cn1cc2c3c(c(C(N)=O)[nH]c3c1=O)CN(c1ccc(Cl)cc1)c1ccc(CS(C)(=O)=O)cc1-2 [Example 58, 4-(4-chlorophenyl)-10-methyl-7-((methylsulfonyl)methyl)-11-oxo-3,4,10,11-tetrahydro-1H-1,4,10-triazadibenzo[cd,f]azulene-2-carboxamide]	2.02	0.617					5.38	39
Cn1cc2c3c(c[nH]c3c1=O)CN(CC1CCNC1)c1ccc(CS(C)(=O)=O)cc1-2 (stereo not drawn) [Example 36]	5.05	6.25					> 1000	
Cc1cnc2c(c1)-c1cn(C)c(=O)c3[nH]cc(c13)CN2c1ccc(F)cc1 [Example 11, 4-(4-fluorophenyl)-7,10-dimethyl-3,4-dihydro-1H-1,4,5,10-tetraazadibenzo[cd,f]azulen-11(10H)-one]	1.61	2.57					1.64	
Cn1cc2c3c(c[nH]c3c1=O)C(C1CCOCC1)N(c1ccc(F)cc1F)c1ccc(CS(C)(=O)=O)cc1-2 (stereo not drawn) [Example 228, 4-(2,4-difluorophenyl)-10-methyl-7-((methylsulfonyl)methyl)-3-(tetrahydro-2H-pyran-4-yl)-3,4-dihydro-1H-1,4,10-triazadibenzo[cd,f]azulen-11(10H)-one]	24.5	2.22					84.9	
Cc1cnc2c(c1)-c1cn(C)c(=O)c3[nH]cc(c13)C(c1ccccc1)N2c1ccc(F)cc1 (stereo not drawn) [Example 33, 4-(4-fluorophenyl)-7,10-dimethyl-3-phenyl-3,4-dihydro-1H-1,4,5,10-tetraazadibenzo[cd,f]azulen-11(10H)-one]	38.3	22.8					495	
Cn1cc2c3c(c[nH]c3c1=O)C(c1ccccc1)N(c1ccc(F)cc1F)c1ccc(CS(C)(=O)=O)cc1-2 [Example 216, (S)-4-(2,4-difluorophenyl)-10-methyl-7-((methylsulfonyl)methyl)-3-phenyl-3,4-dihydro-1H-1,4,10-triazadibenzo[cd,f]azulen-11(10H)-one]	57.3	65.8					603	

— US10035800B2 (AbbVie Inc., priority 2013, dated 2018)
